# Assays:
# HeLa Cells [1] = test: Transfection of HeLa cells with DOTMA/DOPE/peptide and eGFP plasmid, fluorescent plate reader; format: cell-based; settings: DOTMA/DOPE 1:1 plus peptide with RRRRRRRRRRRR (SEQ ID NO: 109) at n terminus; EF1Alpha eGFP plasmid; 0.01 mL complex; 42 hours
# Method in brief: (§1)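 Cells at 60-70% confluence got DOTMA/DOPE (1:1) mixed with peptides bearing an N-terminal R12 DNA-binding tag, complexed 10 min with EF1α-eGFP plasmid (5 μg/mL in OptiMEM); 0.01 or 0.02 mL complex per well. After 42 h at 37 °C, GFP read by fluorescence plate reader and % transfected cells by microscopy, relative to lipid without peptide.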
# HuVec Cells = test: Transfection of HuVec cells with DOTMA/DOPE/peptide and eGFP plasmid, fluorescent plate reader; format: cell-based; settings: DOTMA/DOPE 1:1 plus peptide with RRRRRRRRRRRR (SEQ ID NO: 109) at n terminus; EF1Alpha eGFP plasmid; 0.01 mL complex; 42 hours
# Method in brief: as §1
# NL-1 iPS Cells = test: Transfection of NL-1 iPS cells with DOTMA/DOPE/peptide and eGFP plasmid, fluorescent plate reader; format: cell-based; settings: DOTMA/DOPE 1:1 plus peptide with RRRRRRRRRRRR (SEQ ID NO: 109) at n terminus; EF1Alpha eGFP plasmid; 42 hours
# C2C12 Cells = test: Transfection of C2C12 cells with DOTMA/DOPE/peptide and eGFP plasmid, fluorescent plate reader; format: cell-based, mouse; settings: DOTMA/DOPE 1:1 plus peptide with RRRRRRRRRRRR (SEQ ID NO: 109) at n terminus; EF1Alpha eGFP plasmid; 0.02 mL complex; 42 hours
# Method in brief: as §1
# Human Fibroblast Cells = test: Transfection of human fibroblast cells with DOTMA/DOPE/peptide and eGFP plasmid, fluorescent plate reader; format: cell-based; settings: DOTMA/DOPE 1:1 plus peptide with RRRRRRRRRRRR (SEQ ID NO: 109) at n terminus; EF1Alpha eGFP plasmid; 0.01 mL complex; 42 hours
# Method in brief: as §1
# Jurkat Cells = test: Transfection of Jurkat cells with DOTMA/DOPE/peptide and eGFP plasmid, fluorescent plate reader; format: cell-based; settings: DOTMA/DOPE 1:1 plus peptide with RRRRRRRRRRRR (SEQ ID NO: 109) at n terminus; EF1Alpha eGFP plasmid; 0.02 mL complex; 42 hours
# Method in brief: as §1
# HeLa Cells [2] = test: Transfection of HeLa cells with DOTMA/SEQ ID NO: 72/peptide compared with Lipofectamine 2000; format: cell-based; settings: fusogenic peptide 0.1 mg/mL
# Method in brief: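 HeLa cells at 60–70% confluence received 0.01 mL of complexes of EF1Alpha eGFP plasmid (5 μg/mL in OptiMEM) with DOTMA/DOPE (1:1) plus R12-linked peptide, with fusogenic peptide at 0.1 mg/mL final. GFP read by fluorescence plate reader and microscopy (% cells transfected) after 42 h at 37 °C.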
# some examined cell types = test: Transfection expression and % cells transfected over the no peptide control; format: cell-based; settings: on some examined cell types
# Method in brief: as §1
# [3] = 0.1 μL of DOTMA/SEQ ID NO: 72/Peptide in well of a 96 well plate
# [4] = 0.2 μL of DOTMA/SEQ ID NO: 72/Peptide in well of a 96 well plate
# [5] = 0.3 μL of DOTMA/SEQ ID NO: 72/Peptide in well of a 96 well plate
# [6] = 0.4 μL of DOTMA/SEQ ID NO: 72/Peptide in well of a 96 well plate
Substance,RF (Relative Fluorescence) of Transfection of HeLa Cells (HeLa Cells [1]),RF (Relative Fluorescence) of Transfection of HuVec Cells (HuVec Cells),RF (Relative Fluorescence) of Transfection of NL-1 iPS Cells (NL-1 iPS Cells),RF (Relative Fluorescence) of Transfection of C2C12 Cells (C2C12 Cells),RF (Relative Fluorescence) of Transfection of Human Fibroblast Cells (Human Fibroblast Cells),RF (Relative Fluorescence) of Transfection of Jurkat Cells (Jurkat Cells),"RF (Relative Fluorescence), DOTMA/SEQ ID NO: 72/Peptide, HeLa Cells (HeLa Cells [2]; [3])","RF (Relative Fluorescence), DOTMA/SEQ ID NO: 72/Peptide, HeLa Cells (HeLa Cells [2]; [4])","RF (Relative Fluorescence), DOTMA/SEQ ID NO: 72/Peptide, HeLa Cells (HeLa Cells [2]; [5])","RF (Relative Fluorescence), DOTMA/SEQ ID NO: 72/Peptide, HeLa Cells (HeLa Cells [2]; [6])",transfection expression and the % cells transfected over the no peptide control (some examined cell types)
357 (SETTVKYIFRLHE; Peptidic transfection agent) [compound 357],22679,6009,15624,4506,7167,2256,7718,11798,9229,9107,increased
342 (TAGSCLRKFSTM; Peptidic transfection agent) [compound 342],33666,12804,11493,9496,9525,12825,41299,36040,28841,18351,increased
336 (GEFYFDLRLKGDK; Peptidic transfection agent) [compound 336],25262,5366,14875,9647,10449,4813,14442,16702,13434,11334,increased
350 (SIGFRGDGQTC; Peptidic transfection agent) [compound 350],13313,13163,19132,2631,7105,9184,24092,23238,19802,22255,increased
353 (KKQRFRHRNRKGYRSQ; Peptidic transfection agent) [compound 353],29119,8772,9248,4291,8653,11107,36315,44772,36882,25802,increased
450 (TAGSCLRKFSCL; Peptidic transfection agent) [compound 450],21045,20911,29856,3795,6996,8779,11962,17346,12553,10241,increased
375 (LAGSCLPVFSTL; Peptidic transfection agent) [compound 375],41076,5542,5196,5633,7305,4272,22457,30891,34887,29024,increased
